The series can be described thus: Release test of matrix tablets, USP Type VII, 40% EtOH/water 0-4 hrs then water vs water only (Examples 9-11). Type of series: physicochemical. As to conditions: oxycodone HCl and hydromorphone HCl 30 mg tablets with vs without stearyl alcohol, FIGS. 12 and 13. The protocol:
Ten grams each of formulations with and without stearyl alcohol were prepared via wet granulation technique. The amounts set forth in Tables 5 and 6 of oxycodone hydrochloride, lactose and Eudragit® RS PO were combined in an appropriate vessel and blended for 5 minutes. The powder mixture was granulated with water until a moist mass was produced. The wet mass was then passed through a 16-mesh size screen and was allowed to dry overnight at ambient conditions. In a small vessel, the required amount of stearyl alcohol (a stiffening agent) was melted over a water bath. Keeping the molten stearyl alcohol in the water bath, the desired amount of dried granules were added and mixed until the granules were sufficiently coated with the molten stearyl alcohol. The mixture was removed from the water bath and allowed to cool at ambient conditions before sizing through a 16-mesh screen. Talc and magnesium stearate were added to the coated granules and blended using a suitable blender. The granules were then compressed to 375 mg tablets using an appropriate tabletting machine, such as a Carver press. For granules that were not coated with stearyl alcohol, granules were compressed to 300 mg tablets.
The same manufacturing procedure as Example 7 was used, with the substitution of hydromorphone HCl instead of oxycodone HCl.
Samples for this test came from Examples 7 and 8. […]

Regarding `CCCCCCCCCCCCCCCCCCO` [Stearyl alcohol, stearyl alcohol], the “Effect of the excipient on ethanol effect on opioid release functionality” value is given as “suppressed ethanol effect on opioid functionality”.

The record behind these values is US20090221621A1, “Methods of Reducing Alcohol-Induced Dose Dumping for Opioid Sustained Release Oral Dosage Forms” (priority 2005, published 2009).
